For 1 compound, inhibition results are on record in PMC6934184, “Selective DNA-PKcs inhibition extends the therapeutic index of localized radiotherapy and chemotherapy” (The Journal of Clinical Investigation, 2019).

The assay has as its target T1, SPHK2 (Homo sapiens, UniProt Q9NRA0).
T1 construct: purchased Thermo Fisher Scientific (Life Technologies) SelectScreen
The experiment in a line: SelectScreen Adapta. In kind it is biochemical. As to conditions: ATP 10 µM. The protocol:
The in vitro kinase selectivity of NU5455 was determined using the SelectScreen Broad Assay Panel (Thermo Fisher Scientific) involving activity and binding assays (Supplemental Table 1). […] Class IA PI3Ks were measured using the p85α subunit.
Kinase [ATP] % Assay Kinase [ATP] % Assay Kinase [ATP] % Assay Kinase [ATP] % Assay […]
MAPK14 (p38 alpha) Km app 9.7 Z SPHK2 10 3.1 A ICK n/a 0.0 L SGKL (SGK3) Km app -4.6 Z […]
SGK (SGK1) Km app 8.5 Z MAP4K2 (GCK) Km app 2.7 Z TLK2 n/a -0.3 L STK38 (NDR) n/a -5.9 L
MERTK (cMER) Km app 8.3 Z CDK2/cyclin A Km app 2.7 Z TGFBR1 (ALK5) n/a -0.4 L MATK (HYL) Km app -6.3 Z
FYN Km app 8.3 Z EPHA1 Km app 2.7 Z CLK3 Km app -0.5 Z ABL1 E255K Km app -6.6 Z
TEC n/a 8.1 L CDK2/cyclin E1 n/a 2.7 L MAP3K14 (NIK) n/a -0.5 L STK17A (DRAK1) n/a -6.6 L
KIT V654A n/a 8.1 L TESK2 n/a 2.7 L AKT3 (PKB gamma) Km app -0.5 Z JAK2 JH1 JH2 Km app -6.7 Z
ROS1 Km app 8.0 Z SPHK1 Km app 2.7 A MAP3K9 (MLK1) Km app -0.5 Z PRKACB (PRKAC beta) n/a -6.8 L
FGFR3 K650E Km app 7.9 Z AMPK A2/B1/G1 Km app 2.6 Z IKBKB (IKK beta) Km app -0.6 Z PDGFRA (PDGFR alpha) Km app -6.8 Z
RAF1 (cRAF) Y340D Y341D 100 7.9 Z DYRK3 Km app 2.6 Z CAMK2A (CaMKII alpha) Km app -0.6 Z NEK9 Km app -7.2 Z
PI4KA (PI4K alpha) 10 7.8 A CSNK1D (CK1 delta) Km app 2.6 Z PRKCB1 (PKC beta I) Km app -0.7 Z PDK1 Km app -7.3 Z
HIPK2 Km app 7.8 Z ACVR2A n/a 2.5 L TTK n/a -0.7 L RPS6KB1 (p70S6K) Km app -7.8 Z […]

T1 sequence (Q9NRA0 whole entry): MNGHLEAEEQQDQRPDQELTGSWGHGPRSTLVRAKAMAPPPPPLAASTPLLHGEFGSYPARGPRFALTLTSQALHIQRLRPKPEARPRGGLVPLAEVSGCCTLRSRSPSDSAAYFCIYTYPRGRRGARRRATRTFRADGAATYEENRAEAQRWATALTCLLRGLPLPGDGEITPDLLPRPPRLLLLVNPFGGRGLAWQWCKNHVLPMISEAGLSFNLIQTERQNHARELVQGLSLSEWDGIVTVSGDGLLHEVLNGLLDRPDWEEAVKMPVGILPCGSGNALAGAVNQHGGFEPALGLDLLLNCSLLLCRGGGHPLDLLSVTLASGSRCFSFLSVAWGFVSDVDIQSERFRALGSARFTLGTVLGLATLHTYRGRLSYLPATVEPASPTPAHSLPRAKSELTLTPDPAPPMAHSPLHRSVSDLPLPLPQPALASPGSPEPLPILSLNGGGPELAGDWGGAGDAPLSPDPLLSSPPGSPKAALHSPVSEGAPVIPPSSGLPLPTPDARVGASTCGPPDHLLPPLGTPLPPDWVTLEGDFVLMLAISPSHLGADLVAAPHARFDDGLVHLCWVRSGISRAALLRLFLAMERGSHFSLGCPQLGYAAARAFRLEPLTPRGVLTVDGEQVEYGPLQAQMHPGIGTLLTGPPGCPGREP

With `CN(C(=O)CN1CCOCC1)c1ccc2sc3c(-c4cccc5c(=O)cc(N6CC7CCC(C6)O7)oc45)cccc3c2c1` [NU5455], the inhibition at 1 µM was 3.1%.
